The results in this text go back to PubChem BioAssay (NCI).

The structures appear in SMILES notation.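 In this assay, cells in 96-well plates receive the compound at five concentrations for 48 hours. Endpoints are linearly interpolated between the surrounding concentrations. GI50 = concentration required for 50% inhibition of growth. Definition used: TGI = concentration required for complete inhibition of growth.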

What all share (test): NCI anticancer screen, dose series, 48 h
Test [1] relates to SF-268 CNS.
The subject of test [2] is KM12 colon.
The subject of test [3] is EKVX NSCLC.
Test [4] concerns M14 melanoma.
Test [5] has as its system SR leukemia.
In test [6] the test system is NCI/ADR-RES ovarian.
For test [7], the system named is HCC-2998 colon.
The test system of test [8] is SK-MEL-28 melanoma.
The subject of test [9] is SNB-75 CNS.
The subject of test [10] is NCI-H23 lung.

For `C[C@]12CCC(=O)C=C1CC[C@@H]1[C@@H]2[C@@H](O)C[C@@]2(C)[C@H]1CC[C@]2(O)C(=O)COC(=O)C1CCCC1`, the TGI in test [1], in test [2], in [3], in test [4], in [5] and in test [6] was above 100 µM in each case. Moreover, the TGI in [7], in test [8], in test [9] and in [10] was above 100 µM throughout.

As to `O=S(O)c1cc(Cl)cc(Cl)c1OCc1ccccc1`, the TGI in [1], in test [2], in test [3], in [4], in [5] and in test [7] was above 100 µM each time. For the same molecule, the TGI in [8], in [9] and in test [10] was above 100 µM throughout.

`Cc1ccc(SSCCCCCS(=O)O)cc1`: the TGI in test [1] was 36.1 µM; in test [2], above 100 µM; in test [3], above 100 µM; in test [4], above 100 µM; in test [5], 28.9 µM; in test [7] it was above 100 µM. The figures for the TGI in test [8], in test [9] and in test [10] were above 100 µM, 63.1 µM and 88.9 µM, respectively.

In the case of `CC(=O)C1=C(O)CCC1=O`, the TGI in test [1], in [2], in test [3], in test [4], in [5] and in [6] was above 100 µM in each case. Further, the TGI in test [7], in test [8], in [9] and in test [10] was above 100 µM throughout.

On to `COc1ccc2nc3ccccc3c(NCc3ccc(C)cc3)c2c1`, for which the GI50 is 2.27 µM in test [1]; 2.6 µM in test [2]; 2.5 µM in test [3]; 1.69 µM in test [4]; 1.81 µM in test [5]; 1.79 µM in test [6]. The GI50 in [7] was 1.73 µM; in test [8], 1.75 µM; in [9], 1.49 µM; in [10] it was 1.68 µM. The TGI in test [1] stood at 5.44 µM; in test [2], 8.49 µM; in test [3], 7.94 µM; in test [4], 3.61 µM; in [5], 6.04 µM; in [6] it was 4.98 µM. Further, the TGI in test [7] came out at 3.26 µM; in test [8], 3.29 µM; in [9], 2.85 µM; in test [10], 4.26 µM.

Turning to `Clc1ccc(-c2nnc(-c3c(Cl)c(Cl)c(Cl)c(Cl)c3-c3nc4ccccc4[nH]3)o2)cc1`, the TGI in test [1], in [2], in test [3], in test [4], in [5] and in [6] was above 100 µM throughout. Moreover, the TGI in [7], in test [8], in test [9] and in test [10] was above 100 µM in each case.

For the molecule `COc1cc2c(cc1OC)-c1cc3ccc(OC)c(OC)c3c[n+]1CC2`, the TGI in [1], in [2], in test [3], in test [4], in test [5] and in test [6] was above 100 µM throughout. The TGI in [7], in test [8] and in test [9] was above 100 µM in each case.

For `C[N+](C)(CCO)CCN1c2ccccc2Sc2ccccc21`, the TGI in [1], in test [2], in test [3], in test [4], in test [5] and in [6] was above 10 µM in each case. In addition, the TGI in [7], in test [8], in test [9] and in test [10] was above 10 µM throughout.

As to `Fc1c(F)c(C(F)(F)F)c(F)c(F)c1N/N=C/c1cn(Cc2ccccc2)c2ccccc12`, the TGI in test [1] was above 100 µM; in [2], 45 µM; in [3], 43 µM; in test [4], 43 µM; in test [5], 67 µM; in [6] it was 59.1 µM. Besides, the TGI in [8] is above 100 µM; in [9] it was 62.4 µM; in [10], 79.9 µM.

Turning to `COc1ccc2c(c1)CC[C@@H]1[C@@H]2CC[C@]2(C)C(=O)/C(=C/c3ccc(O)c(OC)c3)C[C@@H]12`, the TGI in test [3] is above 100 µM; in [4], above 100 µM; in test [5] it was above 100 µM; in [6] it was above 100 µM; in test [7], 75.5 µM; in [8] it was above 100 µM. In test [10], this molecule yielded a TGI above 100 µM.

On to `COc1ccc(C2C(C=O)C(N3CCN(C)CC3)=Nc3nc4ccccc4n32)cc1` (stereo not drawn), for which the TGI in test [1] is 51.6 µM; in [2] it was 50.6 µM; in [3], 97.3 µM; in [4] it was 41.5 µM; in [5], 2.35 µM; in [6] it was 53.7 µM. In addition, the TGI in test [7] was determined as 33.9 µM; in test [8], 34.8 µM; in test [9] it was 31.3 µM; in test [10], 44.8 µM.

With `O=C1C[C@H](CCC(=O)OCc2ccccc2)NC(=O)C[C@H](CCC(=O)OCc2ccccc2)NC(=O)C[C@H](CCC(=O)OCc2ccccc2)N1`, the TGI in test [2], in [3], in [4], in test [5], in test [6] and in test [7] was above 100 µM throughout. Moreover, the results for the TGI in test [8], in test [9] and in [10] were above 100 µM, 6.73 µM and above 100 µM, respectively.

For the molecule `COc1cc2c(cc1OCCCN1CCN(c3ncnc4ccccc34)CC1)N=CC1CCCN1C2=O` (stereo not drawn), the GI50 is 0.0339 µM in test [1]; 0.0325 µM in [2]; 0.152 µM in [3]; 0.0303 µM in test [4]; below 0.0149 µM in test [5]; 0.373 µM in [6]. Moreover, the GI50 in test [7] was 0.019 µM; in test [8], 0.0336 µM; in [9], 0.0357 µM; in test [10], 0.0268 µM. Further, the TGI in [1] was 0.625 µM; in test [2], 0.183 µM; in [3], 0.677 µM; in test [4], 0.138 µM; in test [5], 0.0968 µM; in test [6], 7.11 µM. In addition, the TGI came out at 0.0381 µM in [7], 0.103 µM in test [8], 0.168 µM in [9] and 0.0819 µM in test [10].

In the case of `O=c1/c(=C/c2ccc([N+](=O)[O-])o2)sc2n1[C@@H](c1ccc3c(c1)OCO3)C=C(c1cc(F)c(Cl)cc1Cl)N=2`, the TGI in test [1] was above 100 µM; in test [2] it was 38.4 µM; in [3], 32.7 µM; in test [4], 31.8 µM; in [5], above 100 µM; in [6], above 100 µM. The TGI in test [7] was 28.7 µM; in [8], above 100 µM; in test [9], 37.4 µM; in test [10] it was 46.8 µM.

`N#C[S-].[Ce+3].c1cnc2c(c1)ccc1cccnc12.c1cnc2c(c1)ccc1cccnc12.c1cnc2c(c1)ccc1cccnc12`: the TGI in test [2] was 18.3 µM; in test [3], 17.4 µM; in test [4] it was 3.42 µM; in [5], above 100 µM; in test [7] it was 18.9 µM; in test [8] it was 26.9 µM. Besides, the TGI stood at 22.2 µM in [9] and 75.6 µM in test [10].

For the molecule `NC(CC(=O)O)(Cc1ccccc1)C(=O)O` (stereo not drawn), the TGI in test [2], in test [3], in test [4], in test [5], in test [6] and in test [8] was above 100 µM in each case. Besides, the TGI in [9] and in [10] was above 100 µM each time.

Turning to `Cn1c(=O)c2c(nc(NCCNc3nc4c(c(=O)n(C)c(=O)n4C)n3C)n2C)n(C)c1=O`, the TGI in test [1], in test [2], in test [3], in test [4], in [5] and in test [6] was above 100 µM each time. Also, the TGI in [7], in test [8], in [9] and in [10] was above 100 µM each time.
